From BigSolDB 2.1

CC(C)C(=O)Nc1ccc([N+](=O)[O-])c(C(F)(F)F)c1
solubility (mole fraction)
Conditions	278.15 K	283.15 K	288.15 K	293.15 K	298.15 K	303.15 K	308.15 K	313.15 K	318.15 K	323.15 K
in 2-ethoxyethanol	0.132	0.142	0.153	0.164	0.176	0.19	0.204	0.22	0.237	0.258
in 2-methoxyethanol	0.121	0.13	0.142	0.153	0.166	0.18	0.195	0.212	0.229	0.25
in DMF	0.382	0.391	0.401	0.41	0.421	0.433	0.447	0.462	0.476	0.494
in DMSO	–	–	–	0.433	0.443	0.455	0.469	0.481	0.496	0.512
in acetone	0.162	0.173	0.185	0.196	0.209	0.223	0.238	0.255	0.273	0.293
in dichloromethane	0.00732	0.00924	0.0117	0.0143	0.0182	0.0223	0.0273	–	–	–
in ethanol	0.0336	0.0406	0.0503	0.0586	0.0699	0.083	0.0979	0.116	0.135	0.158
in ethyl acetate	0.0998	0.109	0.119	0.131	0.143	0.156	0.17	0.187	0.205	0.225
in ethylene glycol	0.00089	0.00116	0.0015	0.00195	0.00241	0.00308	0.0039	0.00491	0.0061	0.00758
in methanol	0.0296	0.0362	0.0446	0.0532	0.065	0.078	0.0933	0.11	0.131	0.153
in methyl acetate	0.0945	0.103	0.113	0.123	0.135	0.144	0.16	0.175	0.192	0.21
